Experimental data reported in US20260256714A1 (priority 2022, published 2026).

What was measured:
glucocorticoid receptor = target: T1, glucocorticoid receptor (Homo sapiens, UniProt P04150); experiment: fluorescence polarization competition assay (POLARSCREEN Glucocorticoid Receptor Competitor Assay Kit, Red); type: binding
T1 sequence (P04150 1-777): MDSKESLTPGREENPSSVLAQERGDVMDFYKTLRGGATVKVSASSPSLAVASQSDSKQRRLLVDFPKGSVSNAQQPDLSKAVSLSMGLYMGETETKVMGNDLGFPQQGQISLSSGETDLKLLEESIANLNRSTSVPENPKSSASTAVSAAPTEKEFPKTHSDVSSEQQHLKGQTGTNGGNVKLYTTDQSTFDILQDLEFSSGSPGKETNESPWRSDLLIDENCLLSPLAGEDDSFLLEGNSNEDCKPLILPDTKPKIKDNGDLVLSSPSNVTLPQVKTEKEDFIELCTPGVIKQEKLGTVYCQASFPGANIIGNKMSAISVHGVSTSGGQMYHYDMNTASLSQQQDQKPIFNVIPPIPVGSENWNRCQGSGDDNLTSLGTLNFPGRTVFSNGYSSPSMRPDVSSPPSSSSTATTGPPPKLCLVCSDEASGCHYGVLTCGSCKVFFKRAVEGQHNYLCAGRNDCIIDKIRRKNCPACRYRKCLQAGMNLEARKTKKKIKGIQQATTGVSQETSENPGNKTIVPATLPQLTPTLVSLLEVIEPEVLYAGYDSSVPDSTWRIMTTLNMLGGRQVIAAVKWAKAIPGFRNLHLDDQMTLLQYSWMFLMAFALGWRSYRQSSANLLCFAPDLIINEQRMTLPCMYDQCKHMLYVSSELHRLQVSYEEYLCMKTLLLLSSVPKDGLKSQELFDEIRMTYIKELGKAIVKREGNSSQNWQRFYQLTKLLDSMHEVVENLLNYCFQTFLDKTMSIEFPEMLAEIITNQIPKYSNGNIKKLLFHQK
Experimental: The principle of the assay is to determine the binding affinity of a small molecule compound to glucocorticoid receptor by measuring the decrease in polarization caused by the failure of the fluormone tracer to bind to the glucocorticoid receptor in the presence of a small molecule compound that competitively binds to the glucocorticoid receptor.
The excitation wavelength used for the measurement was 535 nm, and the emission wavelength was 590 nm. This experiment was performed three times using the same method and the average value was calculated. A dose-response curve was derived using the measured values, and the IC50 value was calculated by finding the concentration of the sample corresponding to half of the highest measured value.

[1] = tested on: intracellular glucocorticoid receptor; experiment: luciferase assay in GR-GAL4 Reporter (Luc)-HEK293 cells; type: cell-based; conditions: different concentrations, 1 hour before dexamethasone 20 nM, 24 hours incubation
Experimental: In this Example, transfected cells GR-GAL4 Reporter (Luc)-HEK293 (BPS Bioscience, USA) containing a recombinant gene in which luciferase is recombined into the promoter site of GRE were used. Transformed cells were seeded at 30,000 cells per well in 96 wells and stabilized for 16 hours. […] After 1 hour, the cells were treated with dexamethasone, a glucocorticoid agonist, at a concentration of 20 nM and incubated for 24 hours. 100 μL of ONE-STEP™ Luciferase Assay System (BPS Bioscience, USA) was added per well and reacted for 10 minutes, and then luminescence was measured using SpectraMax iD3 (Molecular Devices, USA).

3T3-L1 cells = experiment: Oil Red O staining of MDI-differentiated 3T3-L1 preadipocytes (fat accumulation); type: cell-based; conditions: 0.5 or 1 μM every 48 hours, 6 days of MDI differentiation
Experimental: To differentiate 3T3-L1 cells grown to a confluent state into adipocytes, they were cultured in DMEM medium supplemented with MDI {0.5 mM isobutyl-methylxanthine, 1 μM dexamethasone, and 5 μg/mL insulin} for 48 h, then cultured in DMEM medium supplemented with 5 μg/mL insulin for 48 h, and then cultured in a medium containing 10% fetal bovine serum for 48 h.
The cells were incubated for a total of 6 days, and the cultures were removed at which point differentiation was complete, followed by Oil Red O staining. The cells were fixed with 35 to 40% formaldehyde for 15 minutes, washed with PBS, and stained with Oil Red O solution for 20 minutes. After completion of staining, the cells were washed four times with PBS, dissolved in isopropanol (2-propanol), and O.D. values were measured at 515 nm.

For `C[C@@]1(C(=O)O)CC[C@]2(C)CC[C@]3(C)C4=CC(=O)c5c(cc(O)c(O)c5C=O)[C@]4(C)CC[C@@]3(C)[C@@H]2C1` [demethylzeylasteral, (2R,4aS,6aR,6aS,14aS,14bR)-9-formyl-10,11-dihydroxy-2,4a,6a,6a,14a-pentamethyl-8-oxo-1,3,4,5,6,13,14,14b-octahydropicene-2-carboxylic acid], the IC50 (glucocorticoid receptor) was 1.19 µM, the “inhibitory effect on intracellular glucocorticoid receptor activity (luminescence)” value [1] was “inhibited intracellular glucocorticoid receptor activity in a concentration-dependent manner” and the “intracellular fat accumulation (Oil Red O, O.D. at 515 nm)” value (3T3-L1 cells) was “reduction of intracellular fat accumulation in a concentration-dependent manner”.
